Data on four compounds can be found in patent US8287918B2, “Medicament for treating lung cancer” (Dainippon Sumitomo Pharma Co., Ltd., priority 2001, dated 2012).

The subject of data set [1] is Human small cell lung cancer LX-1 cell strain. Briefly: Antitumor activity against subcutaneously transplanted LX-1 tumor in nude mice. Format: in vivo. As to conditions: single agent at maximum tolerated dose (amrubicin hydrochloride 25 mg/kg; cisplatin 10 mg/kg), single intravenous administration, measured for 23 days. The procedure:
Human small cell lung cancer LX-1 cell strain was subcutaneously transplanted to nude mice (80 animals) at 5 weeks of age. After 15 days from the tumor transplantation, 36 animals having a tumor volume of about 200 to 500 mm^3 were allotted to 6 groups consisting of 6 animals per group. On the same day, the animals received intravenous administration, respectively, of physiological saline for “vehicle group”, the maximum tolerated dose of amrubicin hydrochloride (25 mg/kg) for “an amrubicin hydrochloride alone administration group”, the maximum tolerated dose of cisplatin (10 mg/kg) for “cisplatin alone administration group”, 0.5 times of the maximum tolerated dose of amrubicin hydrochloride and 0.5 times of the maximum tolerated dose of cisplatin for “combined administration group (0.5×MTD)”, 0.8 times of the maximum tolerated dose of amrubicin hydrochloride and 0.8 times of the maximum tolerated dose of cisplatin for “combined administration group (0.8×MTD)”, the maximum tolerated dose of amrubicin hydrochloride and the maximum tolerated dose of cisplatin for “combined administration group (1×MTD)”. Thereafter, tumor volume and body weight of the mice were measured for 23 days. […]
The minimum T/C % was calculated as follows: […]

The conditions of data set [2]: humans, cited from earlier work.
The test system of the next data set is tumor cells. The conditions noted are these: Cancer Chemothr. Pharmacol., 30, 51-57 (1992); cited from earlier work.
The conditions of data set [3]: rabbit chronic experimental model; Invest. New Drug, 15, 219-225 (1997); cited from earlier work.

Where a name gives a salt, the structure may show the parent alone. Read-outs that look alike come from different tables or passages of the source.

For `CC(=O)[C@]1(N)Cc2c(O)c3c(c(O)c2[C@@H](OC2CC(O)C(O)CO2)C1)C(=O)c1ccccc1C3=O` (stereo partly shown) [amrubicin hydrochloride], the “Minimum T/C %” value in data set [1] is listed as 55%. In addition, the maximum tolerated dose in data set [2] (administration in 3 continuous days) is reported as 50 mg/m^2 per day; in data set [2] (once a day single dose), 130 mg/m^2.

For `CC(O)[C@]1(N)Cc2c(O)c3c(c(O)c2[C@@H](O[C@H]2C[C@H](O)[C@H](O)CO2)C1)C(=O)c1ccccc1C3=O` (stereo partly shown) [amrubicinol], the “inhibitory activity against growth of tumor cells compared with amrubicin” value in the data set on tumor cells is on record as “considerably stronger”.

On to `CC(=O)[C@]1(N)Cc2c(O)c3c(c(O)c2[C@@H](O[C@H]2C[C@H](O)[C@H](O)CO2)C1)C(=O)c1ccccc1C3=O` [amrubicin, (+)-(7S,9S)-9-acetyl-9-amino-7-[(2-deoxy-β-D-erythro-pentopyranosyl)oxy]-7,8,9,10-tetrahydro-6,11-dihydroxy-5,12-naphthacenedione], for which the “cardiac toxicity compared with doxorubicin” value in data set [3] was “far weaker than doxorubicin”.

Turning to `N.N.[Cl][Pt][Cl]` [cisplatin, cis-diammin dichloroplatinum], the “Minimum T/C %” value in data set [1] was found to be 68%. Moreover, the maximum tolerated dose in data set [2] is 90 mg/m^2.
